From patent publication US4265910A (priority 1979, dated 1981)
Where a name gives a salt, the structure may show the parent alone. Read-outs that look alike come from different tables or passages of the source.

Assays:
[1] = system: vaccinia virus (DIE strain); type: in vivo, ICR female mice; settings: 8th day after inoculation
[2] = Acute toxicity (50% lethal dose); settings: mouse, in vivo, ddY male mice 20-25 g
Description: In order to investigate acute toxicity of the ingredients of the present invention, 50% lethal dose of each ingredient was obtained by intravenous and intraperitoneal administration thereof by ddY male mice weighing 20-25 g. From the results shown in Table 5, it is understood that the ingredients had high safety margin.

serum interferon = assay: animal or person; type: in vivo, ICR female mice; settings: Mus musculus, L929, ip, 20 h, read-out: Plaque inhibition
Human fibroblast cells = assay: cells; type: cell-based; settings: read-out: Inhibition of cytolysis
[3] = ip, intraperitoneal, read-out: 50% Lethal dose, intraperitoneally administered
[4] = intravenous, read-out: 50% Lethal dose, intravenously administered

Structure (SMILES)	Inhibition of tail lesion ([1]; 20 mg/kg i.p., dosed one time)	Inhibition of tail lesion ([1]; 30 mg/kg i.p., dosed one time)	Inhibition of tail lesion ([1]; 100 mg/kg p.o., dosed one time)	LD50 [2, 3]	LD50 [2, 4]	inhibition at 40 mg/kg (serum interferon)	inhibition at 5 µg/disc (Human fibroblast cells)	Inhibition of tail lesion ([1]; 30 mg/kg s.c., dosed one time)	Inhibition of tail lesion ([1]; 40 mg/kg p.o., dosed one time)	inhibition at 20 mg/kg (serum interferon)	Inhibition of tail lesion ([1]; 20 mg/kg i.p., consecutively dosed (6 times))	Inhibition of tail lesion ([1]; 20 mg/kg p.o., consecutively dosed (6 times))	Inhibition of tail lesion ([1]; 40 mg/kg i.p., consecutively dosed (6 times))	Inhibition of tail lesion ([1]; 40 mg/kg i.p., dosed one time)	Inhibition of tail lesion ([1]; 50 mg/kg p.o., dosed one time)
CC(C)=CCCC(C)=CCCC(C)=CCCC(C)=CCCC(C)=CCCC(C)=CCCC(C)=CCCC(C)=CCCC(C)=CCCC(C)=CCCC(C)=CCN [Undecaprenylamine hydrochloride]	52.4%	40.5%	45.6%	> 1000 mg/kg	18 mg/kg	70.3%	83.3%	–	–	–	–	–	–	–	–
CC(C)=CCCC(C)=CCCC(C)=CCCC(C)=CCCC(C)=CCCC(C)=CCCC(C)=CCCC(C)=CCCC(C)=CCN [Solanesylamine hydrochloride, solanesylamine hydrochloride]	35.7%	72.1%	–	> 500 mg/kg	32.3 mg/kg	79.7%	55.4%	23.2%	40.5%	81%	–	–	–	–	–
CC(C)=CCCC(C)=CCCC(C)=CCCC(C)=CCCC(C)=CCCC(C)=CCCC(C)=CCCC(C)=CCCC(C)=CCCC(C)=CCN [Decaprenylamine hydrochloride]	76.1%	68.7%	–	1000 mg/kg	39.5 mg/kg	83%	64.9%	69.7%	–	47.1%	77.4%	56.8%	88.2%	79.6%	24.1%
